Data on 4 compounds can be found in ChEMBL document CHEMBL1201862, “PubChem BioAssay data set” (2004).

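Grown in 96-well plates, cells were treated for 48 hours with each compound at five concentrations. Insufficient inhibition: endpoint recorded as highest concentration tested. GI50 is the concentration that inhibits growth by half.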 Active and inactive are the calls of the source. No stated cut-off is given here; in the data, active = GI50 up to about 1.1 µM and inactive = higher.

Holding throughout (assay): NCI tumour cell line growth inhibition, 48 h
For experiment [1], the system named is SN12C.
Experiment [2] relates to UACC-257.
Experiment [3] has as its system SK-MEL-5.
The subject of experiment [4] is SNB-19.
The subject of experiment [5] is CAKI-1.
For experiment [6], the system named is U-251.
Experiment [7] relates to ACHN.
The test system of experiment [8] is SF-295.
Experiment [9] concerns KM12.
The test system of experiment [10] is OVCAR-8.
Experiment [11] has as its system LOX IMVI.
Experiment [12] relates to HCT-116.
Experiment [13] concerns SW-620.
The test system of experiment [14] is NCI-H226.
Experiment [15] deals with NCI-H522.
The test system of experiment [16] is HCT-15.
Experiment [17] relates to MOLT-4.
The test system of experiment [18] is SF-539.
The test system of experiment [19] is IGROV-1.
For experiment [20], the system named is RPMI-8226.

For the compound `COC(=O)N/N=c1\cc(C(=O)Nc2ccc(C)c(C)c2)oc2cc(O)ccc12`, the GI50 in experiment [1], in experiment [2], in [3], in experiment [4], in [5] and in [6] was > 100 µM (inactive) each time. The GI50 in experiment [7], in [8], in experiment [9], in [10], in [11] and in [12] was > 100 µM (inactive) in each case. The GI50 was > 100 µM (inactive) in experiment [13]; > 100 µM (inactive) in experiment [14]; > 100 µM (inactive) in experiment [15]; above 100 µM in [16]; > 100 µM (inactive) in experiment [17]; > 100 µM (inactive) in experiment [18]. Moreover, the GI50 in experiment [19] was > 100 µM (inactive).

For the compound `CC(CSC(=N)N)C(N)=O` (stereo not drawn), the GI50 in experiment [1], in experiment [2], in experiment [3], in experiment [4], in [5] and in [6] was > 100 µM (inactive) in each case. Further, the GI50 in [7], in experiment [8], in experiment [9], in experiment [10], in experiment [11] and in experiment [12] was > 100 µM (inactive) each time. Moreover, the GI50 in [20] is > 100 µM (inactive); in [13], > 100 µM (inactive); in experiment [14], > 100 µM (inactive); in experiment [15], > 100 µM (inactive); in [16] it was above 100 µM; in experiment [19] it was > 100 µM (inactive).

Turning to `O=c1c2sc(=S)n(-c3ccc(F)cc3)c2ncn1/N=C/c1ccc(F)cc1F`, the GI50 was 31.3 µM (inactive) in experiment [1]; 34.9 µM (inactive) in experiment [2]; 58.1 µM (inactive) in experiment [3]; 26.6 µM (inactive) in [4]; 14.4 µM (inactive) in [5]; 23.4 µM (inactive) in [6]. The GI50 in experiment [7] was 27.5 µM (inactive); in [8], 21.1 µM (inactive); in experiment [9], 79.8 µM (inactive); in experiment [10] it was 20.1 µM (inactive); in experiment [11], 43.6 µM (inactive); in experiment [12], 31 µM (inactive). The GI50 in experiment [20] is 52.2 µM (inactive); in [13] it was > 100 µM (inactive); in [14], 24.4 µM (inactive); in [15] it was 44.5 µM (inactive); in experiment [16], 88.9 µM; in experiment [19] it was 24.6 µM (inactive).

For `COC(=O)[C@H](Cc1c[nH]c2ccccc12)NP(=O)(O)OC[C@H]1O[C@@H](n2cc(C)c(=O)[nH]c2=O)C[C@@H]1N=[N+]=[N-]`, the GI50 in experiment [1], in [2], in experiment [3], in experiment [4], in [5] and in experiment [6] was > 100 µM (inactive) throughout. Moreover, the GI50 in experiment [8], in experiment [9], in experiment [10], in [11], in [12] and in experiment [20] was > 100 µM (inactive) throughout. The GI50 in [13] is > 100 µM (inactive); in experiment [14], > 100 µM (inactive); in [15], > 100 µM (inactive); in [16] it was above 100 µM; in experiment [17], > 100 µM (inactive); in experiment [19], > 100 µM (inactive).
